For series [1] the following is noted: chemicals of externally-applied lavender or tea tree oils; NIH 2018; cited from earlier work.
The nature of series [2]: Taste and/or aroma of Diet Coke after adding the substance (opinions of a few people). To be noted: for taste and/or aroma of Diet Coke after adding the substance: substance alone added to about 220 ml (7.5 ounces) Diet Coke, room temperature. An excerpt:
For the embodiments disclosed herein, the signifier “aroma” is used in preference to its synonyms: smell and odor (which have negative connotations), and scent (which has perfume connotations). The signifier “taste” is mostly used herein, and to a lesser extent, “flavor”, which often signifies a specific “taste”.
Taste and aroma are not separate sensory experiences. […] This is attributed to the odor sensors in the nose being blocked. […] Thus, in many of the embodiments disclosed herein, the term “taste and/or aroma” is used.
For the exemplary embodiments that follow, the examples are performed with all liquids at room temperature. Sodas typically taste more flavorful at lower temperatures (sodas retain carbonation better at lower temperatures, which creates a better taste for many people). […] Tastes and/or aromas can also vary due to the use of soda container: glass, plastic or metal. There are many who think that cola sodas taste best when consumed from glass bottles. For many of the exemplary embodiments disclosed herein, Bodum Pavina Coffee Mugs, double-wall insulated glass mugs, 8 ounce size, are used.
One embodiment of an improved diet cola beverage product is understood with the following exemplary method and resulting exemplary article of manufacture. […] Any coca leaf extract with similar chemical components to ERC-A20 can be used—coca leaf extracts discussed below.

For series [3] the following is noted: cited from earlier work.
The conditions of series [4]: as sweet as sucrose; cited from earlier work.

Turning to `CC1=CCC(O)(C(C)C)CC1` (centres unmarked) [4-terpineol], in series [1], the “contribution to abnormal breast growth (potential hormone disruptor)” value (“contribution to abnormal breast growth” below) is “probably contributed to the abnormal breast growth”.
Take `CC1=CC=C(C(C)C)CC1` [alpha-terpinene]: the “contribution to abnormal breast growth” value in series [1] is reported as “probably contributed to the abnormal breast growth”.
Take `CC1=CCC(C(C)(C)O)CC1` (stereo not drawn) [alpha-terpineol]: the “contribution to abnormal breast growth” value in series [1] is listed as “probably contributed to the abnormal breast growth”. Moreover, the “taste and/or aroma of Diet Coke after adding the substance” value (from here on “taste and/or aroma of Diet Coke”) in series [2] was “more pleasant”.
As for `CCOC(=O)c1ccccc1` [ethyl benzoate], the “taste and/or aroma of Diet Coke” value in series [2] is “more pleasant than that of untreated Diet Coke”. Also, the solubility in water in series [3] is 500 micrograms/milliliter.
With `CC12CCC(CC1)C(C)(C)O2` [eucalyptol], the “contribution to abnormal breast growth” value in series [1] is on record as “probably contributed to the abnormal breast growth”.
For `CC1=CCC(C(C)C)=CC1` [gamma-terpinene], in series [2], the “taste and/or aroma of Diet Coke” value is recorded as “while more pleasant as seen with adding alpha-terpineol, also has less of a “coca cola” taste”.
For `C=C(C)[C@H]1CC=C(C)CC1` [limonene], the “contribution to abnormal breast growth” value in series [1] is reported as “probably contributed to the abnormal breast growth”.
Turning to `C=CC(C)(O)CCC=C(C)C` (centres unmarked) [linalool], the “contribution to abnormal breast growth” value in series [1] was “probably contributed to the abnormal breast growth”. Further, the “taste and/or aroma of Diet Coke” value in series [2] is “little-to-no change in the unpleasant”.
Consider `C=CC(C)(CCC=C(C)C)OC(C)=O` (centres unmarked) [linalyl acetate], for which, in series [1], the “contribution to abnormal breast growth” value is “probably contributed to the abnormal breast growth”.
Turning to `COC(=O)c1ccccc1` [methyl benzoate], the “taste and/or aroma of Diet Coke” value in series [2] was “improvement in Diet Coke taste similar to that of ethyl benzoate”.
For the molecule `O=C([O-])c1ccccc1.[Na+]` [sodium benzoate, reference compound], in series [2], the “taste and/or aroma of Diet Coke” value was “No improvement”.
Take `O=S(=O)([O-])NC1CCCCC1.[Na+]` [sodium cyclamate]: the “taste test preference, added to Diet Coke versus added to Coca-Cola Zero” value in series [2] (some taste tests, Diet Coke (total 2 artificial sweeteners) vs Coca-Cola Zero (3 artificial sweeteners)) was “more preferred”.
As to `OC[C@@H](O)[C@@H](O)[C@H](O)[C@@H](O)CO` [sorbitol], in series [4], the “sweetness relative to sucrose” value is “about 60%”.
With `OC[C@H]1O[C@@](CO)(O[C@H]2O[C@H](CO)[C@@H](O)[C@H](O)[C@H]2O)[C@@H](O)[C@@H]1O` [sugar], the “taste of resulting beverage, sweetener added together with coca leaf extract” value in series [2] (220 ml Diet Coke + one teaspoon coca leaf extract + sweetener (about one bag Sugar Twin; one to two bags sugar)) is on record as “more pleasant tasting Diet Coke soda”.
